Measured values published in the supplement of paper PMC10307832.

How the values were obtained:
Test in all cases: relative viability (nuclei count vs DMSO), 5 days (fraction); higher = more cells survive
Doxorubicin + Luminespib = compound: COc1cccc2c1C(=O)c1c(O)c3c(c(O)c1C2=O)C[C@@](O)(C(=O)CO)C[C@@H]3O[C@H]1C[C@H](N)[C@H](O)[C@H](C)O1 [Doxorubicin] + CCNC(=O)c1noc(-c2cc(C(C)C)c(O)cc2O)c1-c1ccc(CN2CCOCC2)cc1 [Luminespib] (partner 0.01 µM)
How it was run: (§1)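 A single step with final 0.05% Triton X-100, 1% formaldehyde and 1 ug/ml Hoechst fixed the cells and stained nuclei 5 days after treatment. Lung cancer cell lines in 1536-well plates had been treated by pin tool the day after seeding with one drug alone or a fixed anchor-drug dose plus five library-drug doses (not always all listed) in √10 steps, and nuclei were counted on 4× images. Relative viability is the ratio of nuclei in treated wells to nuclei in vehicle wells, taken as the median of duplicate plates.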

Doxorubicin + Alpelisib = compound: COc1cccc2c1C(=O)c1c(O)c3c(c(O)c1C2=O)C[C@@](O)(C(=O)CO)C[C@@H]3O[C@H]1C[C@H](N)[C@H](O)[C@H](C)O1 [Doxorubicin] + Cc1nc(NC(=O)N2CCC[C@H]2C(N)=O)sc1-c1ccnc(C(C)(C)C(F)(F)F)c1 [Alpelisib] (partner 2 µM)
How it was run: as §1

BAY61-3606 + Phenformin = compound: COC1=C(C=C(C=C1)C2=CC3=NC=CN3C(=N2)NC4=C(C=CC=N4)C(=O)N)OC [BAY61-3606] + N=C(N)NC(=N)NCCc1ccccc1 [Phenformin] (partner 250 µM)
How it was run: as §1

BAY61-3606 + Navitoclax = compound: COC1=C(C=C(C=C1)C2=CC3=NC=CN3C(=N2)NC4=C(C=CC=N4)C(=O)N)OC [BAY61-3606] + CC1(C)CCC(c2ccc(Cl)cc2)=C(CN2CCN(c3ccc(C(=O)NS(=O)(=O)c4ccc(N[C@H](CCN5CCOCC5)CSc5ccccc5)c(S(=O)(=O)C(F)(F)F)c4)cc3)CC2)C1 [Navitoclax] (partner 0.5 µM)
How it was run: as §1

Cell Line | relative viability (Doxorubicin + Luminespib; first compound 0.001 µM) | relative viability (Doxorubicin + Luminespib; first compound 0.003162 µM) | relative viability (Doxorubicin + Luminespib; first compound 0.01 µM) | relative viability (Doxorubicin + Luminespib; first compound 0.03162 µM) | relative viability (Doxorubicin + Luminespib; first compound 0.1 µM) | relative viability (Doxorubicin + Alpelisib; first compound 0.001 µM) | relative viability (Doxorubicin + Alpelisib; first compound 0.003162 µM) | relative viability (Doxorubicin + Alpelisib; first compound 0.01 µM) | relative viability (Doxorubicin + Alpelisib; first compound 0.03162 µM) | relative viability (Doxorubicin + Alpelisib; first compound 0.1 µM) | relative viability (BAY61-3606 + Phenformin; first compound 0.02 µM) | relative viability (BAY61-3606 + Phenformin; first compound 0.06325 µM) | relative viability (BAY61-3606 + Phenformin; first compound 0.2 µM) | relative viability (BAY61-3606 + Phenformin; first compound 0.6325 µM) | relative viability (BAY61-3606 + Phenformin; first compound 2 µM) | relative viability (BAY61-3606 + Navitoclax; first compound 0.02 µM) | relative viability (BAY61-3606 + Navitoclax; first compound 0.06325 µM) | relative viability (BAY61-3606 + Navitoclax; first compound 0.2 µM) | relative viability (BAY61-3606 + Navitoclax; first compound 0.6325 µM) | relative viability (BAY61-3606 + Navitoclax; first compound 2 µM)
HCC-44 | 0.879 | 0.838 | 0.658 | 0.526 | 0.273 | 0.823 | 0.801 | 0.751 | 0.78 | 0.93 | 0.189 | 0.134 | 0.141 | 0.251 | 0.182 | 0.935 | 0.903 | 1.01 | 1.13 | 0.816
HCC-78 | – | – | – | – | – | 0.374 | 0.269 | 0.548 | 0.298 | 0.312 | 0.769 | 0.719 | 0.688 | 0.848 | 0.915 | 0.915 | 0.652 | 0.905 | 0.802 | 0.801
HCC-366 | – | – | – | – | – | – | 0.348 | 0.439 | 0.369 | 0.367 | 0.642 | 0.512 | 0.613 | 0.565 | 0.504 | 1.09 | 1.05 | 0.87 | 0.999 | 0.891
HCC-827 | 0.555 | 0.379 | 0.602 | 0.573 | 0.566 | 1.04 | 1.15 | 0.968 | 1.02 | 1.05 | 0.392 | 0.435 | 0.389 | 0.358 | 0.347 | 1 | 0.998 | 1.06 | 1.08 | 1.02
HOP-62 | 0.906 | 0.942 | 0.896 | 0.958 | 0.931 | 0.873 | 1.26 | 1.15 | 0.879 | 0.934 | 0.629 | 0.645 | 0.635 | 0.667 | 0.534 | 0.981 | 1.08 | 0.981 | 1.08 | 0.676
IA-LM | – | – | – | – | – | 0.675 | 0.742 | 0.669 | 0.544 | 0.427 | – | – | – | – | – | 0.812 | – | 0.827 | 0.793 | 0.725
LC-2-ad | 0.889 | 0.696 | 0.642 | 0.421 | 0.295 | 0.892 | 0.87 | 0.924 | 0.859 | 0.724 | 0.613 | 0.539 | 0.592 | 0.6 | 0.563 | 0.471 | 0.521 | 0.466 | 0.468 | 0.26
LCLC-97TM1 | 0.718 | 0.818 | 0.677 | 0.772 | 0.834 | 0.228 | 0.219 | 0.269 | 0.24 | 0.285 | 0.419 | 0.441 | 0.455 | 0.415 | 0.451 | 0.393 | – | 0.386 | 0.417 | 0.326
LCLC-103H | 0.941 | 1.06 | 0.949 | 0.931 | 0.864 | 0.917 | 0.993 | 0.981 | 1.06 | 1.08 | 0.342 | 0.328 | 0.297 | 0.328 | 0.352 | – | – | – | – | –
LK-2 | 0.171 | 0.215 | 0.235 | 0.162 | 0.16 | 0.521 | 0.642 | 0.947 | 0.868 | 0.85 | 0.389 | 0.307 | 0.368 | 0.463 | 0.221 | 0.927 | 0.963 | 0.925 | 0.896 | 0.705
NCI-H358 | 0.213 | 0.471 | 0.291 | 0.392 | 0.189 | 0.796 | 0.916 | 0.569 | 0.19 | 0.154 | 0.371 | 0.32 | 0.351 | 0.244 | 0.158 | – | – | – | – | –
NCI-H522 | – | 1.21 | 1.12 | 0.885 | 1.15 | – | – | – | – | – | 0.634 | 0.624 | 0.674 | 0.749 | 0.557 | – | – | – | – | –
NCI-H650 | 0.694 | 0.75 | 0.78 | 0.565 | 0.627 | 1.31 | 1.13 | 1.06 | 0.938 | 0.822 | 0.435 | 0.42 | 0.375 | 0.428 | 0.405 | – | – | – | – | –
NCI-H661 | 0.915 | 0.909 | 0.858 | 0.574 | 0.378 | 0.589 | 0.702 | 0.511 | 0.592 | 0.469 | 0.271 | 0.283 | 0.28 | 0.254 | 0.248 | – | – | – | – | –
NCI-H1299 | – | – | – | – | – | 1.06 | 1.12 | 1.08 | 1.07 | 1.06 | – | – | – | – | – | 1.05 | 1.06 | 1.05 | 1.07 | 1.05
NCI-H1563 | 0.486 | 0.549 | 0.536 | 0.528 | 0.491 | 0.888 | 0.824 | 0.726 | 0.529 | 0.51 | 0.631 | 0.59 | 0.604 | 0.62 | 0.61 | – | – | – | – | –
NCI-H1623 | 0.394 | 0.478 | 0.508 | 0.374 | 0.487 | – | – | – | – | – | 0.58 | 0.522 | 0.588 | 0.58 | 0.588 | – | – | – | – | –
NCI-H1650 | 0.201 | 0.182 | 0.203 | 0.223 | 0.182 | – | – | – | – | – | 0.506 | 0.351 | 0.48 | 0.378 | 0.224 | 1.21 | 1.19 | 1.16 | 1.27 | 0.751
NCI-H1703 | – | – | – | – | – | 0.335 | 0.293 | 0.365 | 0.214 | 0.201 | – | – | – | – | – | 1.47 | 0.859 | 0.954 | 1.08 | 0.475
NCI-H2342 | 0.816 | 0.739 | 0.585 | 0.507 | 0.787 | – | – | – | – | – | 0.629 | 0.65 | 0.535 | 0.586 | 0.662 | – | – | – | – | –
SW 900 | 0.176 | 0.152 | 0.162 | 0.167 | 0.175 | – | – | – | – | – | 0.736 | 0.456 | 0.489 | 0.594 | 0.473 | – | – | – | – | –
